Like-named read-outs stand apart in the source and are kept apart here.
What was measured:
[1] = target: T1, CIB1 and αIIb interaction (CIB1-GST : F-αIIb peptide) (Homo sapiens, UniProt Q99828); assay: FP assay, 1536-well qHTS format (primary and confirmatory screen); assay type: binding; conditions: for Curve Class (confirmatory screen) / CONFIRMATORY SCREEN Curve Class: qHTS curve class
T1 construct: made in house; host or cells: BL-21 plus RIL cells (E. coli)
T1 sequence (Q99828 1-191): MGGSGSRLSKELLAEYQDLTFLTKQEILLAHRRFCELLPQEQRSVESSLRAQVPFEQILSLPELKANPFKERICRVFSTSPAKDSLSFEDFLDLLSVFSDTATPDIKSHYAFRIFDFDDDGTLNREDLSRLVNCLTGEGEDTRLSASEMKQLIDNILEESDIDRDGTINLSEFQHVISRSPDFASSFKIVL

[2] = target: T2, GST-CIB1 : F-scrambled peptide (Homo sapiens, UniProt Q99828); assay: FP scrambled-peptide counter screen, 1536-well format; assay type: binding; conditions: for Curve Class (counterscreen) / COUNTERSCREEN Curve Class: qHTS curve class
T2 construct: made in house; host or cells: BL-21 plus RIL cells (E. coli)
T2 sequence (Q99828 1-191): T1 sequence (Q99828 1-191)

[3] = confirmatory screen, negative sign = inhibitory curve
[4] = confirmatory screen, read-out: IC50 [μM] (confirmatory screen)
[5] = qHTS FP screen hits, Table S2, negative = inhibition
[6] = qHTS FP screen hits, Table S2, one class per curve where COUNT > 1, negative sign = inhibitory curve
[7] = qHTS FP screen hits, Table S2, read-out: IC50
[8] = counterscreen, negative sign = inhibitory curve
[9] = Table S3, confirmatory screen, YES/NO call
[10] = Table S3, confirmatory screen, a negative sign marks inhibitory curves
[11] = Table S3, confirmatory screen, negative = inhibition
[12] = Table S3, confirmatory screen, read-out: IC50 [μM] (confirmatory screen)
[13] = qHTS primary screen hits, Table S2, negative = inhibition
[14] = qHTS primary screen hits, Table S2, negative sign = inhibitory curve, several classes where COUNT > 1
[15] = qHTS primary screen hits, Table S2, read-out: IC50
[16] = Table S3, counterscreen, a negative sign marks inhibitory curves
[17] = Table S3, counterscreen, negative = inhibition
[18] = Table S3, counterscreen, read-out: IC50 [μM] (counterscreen)
[19] = Table S3, counterscreen, YES/NO call
[20] = counterscreen, read-out: IC50 [μM] (counterscreen)
[21] = scrambled-peptide counterscreen

SMILES | Efficacy (%) (confirmatory screen) ([1]; confirmatory screen) | Confirm? (confirmatory screen) ([1]; confirmatory screen, YES/NO) | Curve Class (confirmatory screen) [1, 3] | Efficacy (%) [1, 5] | IC50 [1, 7] | Efficacy (%) (counterscreen) ([2]; counterscreen) | Curve Class (counterscreen) [2, 8] | Curve Class (confirmatory screen) [1, 10] | Efficacy (%) (confirmatory screen) [1, 11] | Efficacy (%) [1, 13] | Curve Class [1, 14] | IC50 [1, 15] | Curve Class (counterscreen) [2, 16] | Efficacy (%) (counterscreen) [2, 17] | IC50 [2, 18] | also measured
O=c1nc(-c2ccccn2)sc2ccccc12 [NCGC00387147-01] | -28% | YES | -2.4 | -72% | 28.2 µM | 0% | 4 | – | – | – | – | – | – | – | – | IC50 [1, 4]: 44.7 µM; Curve Class [1, 6]: -1.2; Confirm? (counterscreen) ([2]; counterscreen, YES/NO): YES
Cc1cc(NS(=O)(=O)c2ccc(NC(=O)Cc3cccc4ccccc34)cc2)no1.O=C(O)C(F)(F)F [NCGC00244880-01] | – | – | – | – | – | – | – | -2.2 | -48% | -21% | -1.4 | 17.8 µM | -2.2 | -64% | 20 µM | Confirm? (confirmatory screen) [1, 9]: YES; IC50 [1, 12]: 31.6 µM
CC(=O)NC(Cc1ccccc1)C(=O)O (centres unmarked) [NCGC00042134-05] | – | – | – | -47% | 100 µM | – | – | 4 | 0% | – | – | – | 4 | -35% | – | Curve Class [1, 6]: -2.2
O=C(O)C(F)(F)F.O=C1CCCC2=C1C(c1ncccc1C(F)(F)F)N=C(Nc1nc3ccccc3o1)N2 (centres unmarked) [NCGC00189070-01] | – | – | – | – | – | – | – | 4 | -19% | -47% | -2.2 | 39.8 µM | -2.4 | -41% | 28.2 µM | Confirm? (counterscreen) [2, 19]: YES
CC(=O)[O][Hg][c]1ccccc1 [NCGC00091050-09] | – | – | – | – | – | – | – | 4 | 41% | -59% | -1.2 | 7.9 µM | 2.3 | 145% | – | –
O=C(O)CCNc1cc(N2CCc3ccccc3CC2)nc(-c2ccccn2)n1 [NCGC00347943-01] | – | – | – | – | – | – | – | – | – | – | – | – | – | – | – | CONFIRMATORY SCREEN Efficacy (%) ([1]; confirmatory screen): -28%; CONFIRMATORY SCREEN Curve Class ([1]; confirmatory screen): 4; COUNTERSCREEN Efficacy (%) ([2]; counterscreen): -35%; COUNTERSCREEN Curve Class ([2]; counterscreen): 4
C=CCNc1oc(-c2ccc(Cl)cc2)nc1C#N.O=C(O)C(F)(F)F [NCGC00183412-01] | -72% | YES | -2.2 | -54% | 50.1 µM | -30% | -1.2 | – | – | – | – | – | – | – | – | IC50 [1, 4]: 31.6 µM; Curve Class [1, 6]: -2.2; IC50 [2, 20]: 12.6 µM
O=C(O)c1cc(O)c2c(c1)C(=O)c1cccc(O)c1C2=O [NCGC00018199-06] | -66% | YES | -1.2 | – | – | -61% | -1.2 | – | – | -32% | -2.2 | – | – | – | – | –
Oc1ccc(-c2nnn[nH]2)c2cccnc12 [NCGC00184885-01] | -40% | YES | -3 | – | – | -19% | -1.4 | – | – | -31% | -1.2 | 14.1 µM | – | – | – | IC50 [1, 4]: 79.4 µM; IC50 [2, 20]: 35.5 µM
COc1cc2ccccc2cc1C(=O)N/C(S)=N/c1cc(C(=O)O)ccc1C.O=C(O)C(F)(F)F [NCGC00479324-01] | – | – | – | -25% | 12.6 µM | – | – | – | – | – | – | – | – | – | – | CONFIRMATORY SCREEN Efficacy (%) ([1]; confirmatory screen): -38%; CONFIRMATORY SCREEN Curve Class ([1]; confirmatory screen): 4; COUNTERSCREEN Efficacy (%) ([2]; counterscreen): 12%; COUNTERSCREEN Curve Class ([2]; counterscreen): 4
CC(=O)Nc1sc2c(c1-c1nc3ccccc3o1)CCN(C(C)C)C2.O=C(O)C(F)(F)F [NCGC00184832-01] | – | – | – | – | – | – | – | -1.2 | -47% | -78% | -2.2 | 50.1 µM | -2.2 | -55% | 50.1 µM | Confirm? (confirmatory screen) [1, 9]: YES; IC50 [1, 12]: 39.8 µM
CCOC(=O)c1c(-c2ccc(C)o2)csc1NC(=O)CSc1nnnn1-c1ccccc1.O=C(O)C(F)(F)F [NCGC00041785-02] | -47% | YES | -2.2 | – | – | -23% | 4 | – | – | -58% | -1.2 | 28.2 µM | – | – | – | IC50 [1, 4]: 39.8 µM; Confirm? (counterscreen) ([2]; counterscreen, YES/NO): YES
O=C(O)C(F)(F)F.O=C(c1ccc(-c2cc(O)c3ncccc3c2)cc1)N1CCNCC1 [NCGC00183806-01] | – | – | – | – | – | – | – | 4 | -11% | -40% | – | 39.8 µM | -1.2 | -59% | 35.5 µM | Curve Class ([1]; qHTS primary screen hits, Table S2, negative sign = inhibitory curve): -2.2; Confirm? (counterscreen) [2, 19]: YES
Cc1cc(C(C#N)c2ccc(Cl)cc2)c(Cl)cc1NC(=O)c1cc(I)cc(I)c1O (centres unmarked) [NCGC00166312-02] | – | – | – | -35% | – | – | – | 4 | -32% | – | – | – | – | 117% | 31.6 µM | IC50 ([1]; IC50 [μM], qHTS FP screen hits, Table S2): 27 µM
CC(=O)Oc1cccc2c1C(=O)c1c(OC(C)=O)cc(C(=O)O)cc1C2=O [NCGC00018274-05] | – | – | – | – | – | – | – | – | – | -39% | -2.4 | 39.8 µM | – | – | – | CONFIRMATORY SCREEN Confirm? ([1]; confirmatory screen, YES/NO call): YES; CONFIRMATORY SCREEN Curve Class [1, 3]: -1.4; CONFIRMATORY SCREEN Efficacy (%) ([1]; confirmatory screen, negative = inhibition): -50%; IC50 ([1]; confirmatory screen, read-out: CONFIRMATORY SCREEN IC50): 11.2 µM; COUNTERSCREEN Efficacy (%) [2, 21]: -53%; COUNTERSCREEN Confirm? ([2]; scrambled-peptide counterscreen, YES/NO call): YES; COUNTERSCREEN Curve Class [2, 21]: -2.4; IC50 ([2]; scrambled-peptide counterscreen, read-out: COUNTERSCREEN IC50): 50.1 µM
NC(=O)C1CCN(c2ncc(Br)s2)CC1 [NCGC00184919-01] | – | – | – | -123% | 39.8 µM | – | – | -2.1 | -112% | – | – | – | -2.1 | -127% | 39.8 µM | Confirm? (confirmatory screen) [1, 9]: YES; IC50 [1, 12]: 50.1 µM; Curve Class [1, 6]: -2.1
CN1C[C@H](CNC(=O)OCc2ccccc2)C[C@@H]2c3cccc4c3c(cn4C)C[C@H]21 [NCGC00017257-10] | -126% | YES | -2.1 | -75% | 36.4 µM | -32% | -2.4 | – | – | – | – | – | – | – | – | IC50 [1, 4]: 44.7 µM; Confirm? (counterscreen) ([2]; counterscreen, YES/NO): YES; IC50 [2, 20]: 63.1 µM

— PMC11249646, “Small-Molecule Disruptors of the Interaction between Calcium- and Integrin-Binding Protein 1 and Integrin αIIbβ3 as Novel Antiplatelet Agents” (ACS Pharmacology & Translational Science, 2024)
